Data from patent publication US20090203636A1, “Prevention and Treatment of Cancer and Other Diseases” (priority 2006, published 2009).
≈ marks a conversion by molar mass, not a printed value. Structures can show the parent of a compound that is named as a salt.

Experiments:
[1] = test system: U-2 OS cells; assay: Telomere length (flow cytometry, PNA probe), cell cycle distribution (PI), apoptosis and TRAP status in U-2 OS cells; type: cell-based, human
Method: (§1) The ALT cell lines were treated with therapeutic concentrations of AZT, to determine if slippage telomeric DNA synthesis could be inhibited by AZT-TP, and thereby induce telomere shortening. Telomere length in AZT treated and untreated cell lines was measured by flow cytometry with a telomere specific peptide nucleic acid (PNA) probe. To determine cell cycle distribution, cells were stained with propidium iodide (PI).
Rate of DNA synthesis was determined by incorporation of 5-bromodeoxyuridine (BdU). […] It is important to note that changes in cell cycle distribution, DNA synthesis and telomere length were rapid and could be detected after only 10 days of AZT treatment.
Telomere length in untreated and GCV treated cells was measured by flow cytometry with a telomere-specific PNA probe as described above.
To determine cell cycle distribution, cells were stained with propidium iodide (PI).
(§2) Both telomerase positive (Hela) telomerase negative (U-2 OS) cell lines were used. Appropriate assays were performed to detect and confirm telomerase/L1RT specific activity in these cells.
(§3) The U-2 OS (osteosarcoma) and HeLa (uterine cervix) cell lines used in this study were obtained from American Type Culture Collection (Rockville, Md.). Cells were cultured in D-MEM media supplemented with 10% fetal calf serum at 37° C. in a humidified atmosphere of 5% CO2. For treatment of the cells with ACV, the media was supplemented with 3 μM of acyclovir (acyclovir, TEVA Pharm. Ind. Ltd, Israel). For treatment of the cells with GCV, the media was supplemented with 1.5 μM of GCV (Cymevene, Hoffman-La Roche). For treatment of the cells with PCV, the media was supplemented with 1.5 μM of PCV (penciclovir, Merck & Co.).
(§4) Real time TRAP assay was performed as described (Wege et al., SYBR Green real-time telomeric repeat amplification protocol for the rapid quantification of telomerase activity. Nucleic Acids Res. 2003; 31(2):E3-3). For telomere length measurement by flow cytometry, cells were stained with telomere specific FITC conjugated (C3TA2)3 PNA (Applied Biosystems) probe and contrastained with 0.06 μg/ml PI as described by Rufer, N., Dragowska, W., Thornbury G., Roosnek, E., Lansdorp P. M. Telomere length dynamics in human lymphocyte subpopulations […]. Nat. Biotechnol. 16, 743-747 (1998)).
(a) In vitro arrays: U-2 OS cells were incubated with 0.2 μM of AZT for 22 days. Actively growing clones were analyzed by flow-FISH with telomere specific PNA probe, and in real time TRAP assay using HeLa cells as positive control. Isolated actively growing clones were different from parental cells in DNA content and telomere length.
(§5) Telomere length in SN 1 or SN 2 treated and untreated cell lines was measured by flow cytometry with a telomere—specific peptide nucleic acid PNA) probe. To determine cell cycle distribution, cells were stained with propidium iodide (PI).
(§6) The U-2 OS (osteosarcoma) and Hela (uterine cervix) cell lines used in this study were obtained from American Type Culture Collection (Rockville, Md.). Cells were cultured in D-MEM media supplemented with 10% fetal calf serum at 37° C. in a humidified atmosphere of 5% CO2. For treatment of the cells with SN 1 or SN 2, the media was supplemented with 1.5 μM of SN1 or SN2.
(§7) For telomere length measurement by flow cytometry, cells were stained with telomere specific FITC conjugated (C3TA2)3 PNA (Applied Biosystems) probe and contra-stained with 0.06 μg/ml PI as described by Rufer, N., Dragowska, W., Thornbury G., Roosnek, E., Lansdorp P. M. Telomere length dynamics in human lymphocyte subpopulations […]. Nat. Biotechnol. 16, 743-747 (1998)).

[2] = test system: HeLa cells; assay: Telomere length (flow cytometry, PNA probe), cell cycle distribution (PI) and apoptosis in HeLa cells; type: cell-based, human
Method: as §1
(§8) The origin of the cell lines are uterine cervix (HeLa) and epithelial ovarian (NuTu-19). Cells were cultured in D-MEM media supplemented with 10% fetal calf serum at 37° C. in a humidified atmosphere of 5% CO2. For treatment of the cells with GCV, the media was supplemented with 1.5 μM of GCV (Cymevene, Hoffman-La Roche). For treatment of the cells with ACV, the media was supplemented with 3 μM of Acyclovir (Acyclovir, TEVA Pharm. Ind. Id. Israel).
as §4, §2, §3, §5, §6, §7

[3] = test system: NuTu-19 cells; assay: Telomere length (flow cytometry, PNA probe), cell cycle distribution (PI) and apoptosis in NuTu-19 cells; type: cell-based; conditions: GCV 1.5 μM or ACV 3.0 μM, 14 days (Example 2b)
Method: as §8, §4

[4] = test system: Saos-2 osteosarcoma cells; conditions: therapeutic concentrations, 14 days; reported in WO 2005/069880; cited from earlier work
[5] = test system: U-2 OS cells; conditions: therapeutic concentrations, 14 days; reported in WO 2005/069880; cited from earlier work
[6] = MTT-microtiter plate tetrazolium cytotoxicity assay; type: cell-based; conditions: dog, MDCK (ATCC) cells; continuous exposure for 2 days; read-out: IC50 cytotoxic doses
Method: (a) Cytotoxcity Assay: The cytotoxic effects of compounds of the invention was determined using pharmacological models that are well known to the art, i.e., MTT-microtiter plate tetrazolium cytotoxicity Assay. Specifically, cytotoxicity assays were performed using the MIT assay procedure described in Mosmann, 1983, Rapid calorimetric assay for cellular growth and survival: application to proliferation and cytotoxicity assays, J Immunol Methods, 65:55-63. Briefly, the assay was performed by using 96-well microtiter plates plated at 10^4 MDCK (ATCC) cells/well, in […] of growth medium.
For determination of IC50 cells were exposed continuously for 2 days to varying concentrations of SN1, SN2, SN3, SN4 and valine ester of SN1. MIT assays were performed at the end of the 2nd day. […] All assays were performed at least 2 times in 3 replicate wells.

[7] = test system: HeLa cells; type: in vivo; conditions: Valcyte in drinking water (1 mg/ml) from day 0
Method: For in vivo assay, appropriate host, e.g., nude (nu/nu) mice of about 5-7 weeks old are obtained and maintained in pathogen-free conditions. Approximately, 1×10^6 HeLa cells (and/or U-2 OS cells) contained in 200 μl of serum-free media are delivered to all animals, briefly anaesthetize with Metofane, by subcutaneous (s.c.) injection in flank. Then the mice are divided into experimental group and control group. Appropriate concentrations of compounds of the formulas (I) to (VI), ACV, PCV and/or GCV are used for tumor growth progression or regression assays.
In one embodiment, impairment of s.c. tumor growth or time to progression rather than decrease in size of an established tumor (regression) is assessed. In this embodiment, starting from the day zero, mice in the experimental group receive GCV in drinking water ad libitum. Concentration of GCV in water can be 2 mg/ml. Fresh solution of GCV is supplied every 3 days. Mice in the control group receive only drinking water. Tumors are measured every 2-3 days. Mice are sacrificed when tumors exceed 1 cm^3. Tumor volume is calculated with formula 4/3πr^3, where r is the radius of the tumor.
Experimental group received valganciclovir in drinking water from day 0. Human cancer HeLa cell culture was purchased from ATCC. In all, 12 CD1/-nu and 12 NMRiI/-nu nude mice were purchased from Charles River Laboratories, Charles River Deutschland GmbH. These nude mice were injected s.c. with 3×10^5 Hela cells. Mice in the experimental groups (6 mice per strain) were exposed to Valcyte® (val-ganciclovir) in drinking water (1 mg/ml) from day 0.
(a) In vivo assays using Valganciclovir and zidovudine (AZT) combination: Human cancer HeLa cell culture was purchased from ATCC. A total of 24 CD1/-nu nude mice were purchased from Charles River laboratories, Charles River Deutschland GmbH. These mice were injected s.c. with 1×10^5 HeLa cells. The tumor volumes were determined by measurement of maximal and minimal diameters of the tumor. The calculations were conducted using the formula V=4/3 πRmax×Rmin^2, where Rmax−½ of maximal diameter of the tumor, and Rmin−½ of minimal diameter of the tumor. nude mice were injected s.c. with 1×10^5 Hela cells.
Of the 12 treated mice, after 20 days of double cocktail treatment, six mice were administered with a triple cocktail (Valcyte®+Retrovir®+ddI at the dose of 1 mg/ml each in drinking water for a further period 21 days (see Example 7 below) and only six mice continued to receive the double cocktail for another 21 days at which time tumor measurements were taken for all mice injected with HeLa cells. Of the remaining 12 mice injected with HeLa cells but untreated with any cocktail or anticancer agent thus far, six were maintained as controls for the rest of the duration of the experiment. The other six were treated with Xeloda® 67 days after the injection of HeLa cells (see Example 7 below).
As mentioned in Example 5 above, a total of six mice, after 20 days of double cocktail treatment, were administered with a triple cocktail (Valcyte®+Retrovir®+ddI at the dose of 1 mg/ml each in drinking water) for a further period 21 days. After 14 days of triple cocktail treatment, Xeloda® at a concentration 1 mg/ml was added to the triple cocktail. Six mice previously untreated with any drug for 67 days after the injection of HeLa cells were treated with Xeloda® at a concentration 1 mg/ml in drinking water. Tumor measurements were taken in all mice 75 days following the injection of HeLa cells.

[8] = ACV 3.0, GCV 1.5 μM or PCV 1.5 μM, 10 and 14 days (Example 2c)
[9] = GCV 1.5 μM or ACV 3.0 μM, 14 days (Example 2b)

## Nc1nc2c(ncn2COCCO)c(=O)[nH]1 [ACV, 9-[2(hydromethoxy)-methyl]guanine]
[1]; [8]
  telomere length, apoptosis and cell cycle distribution: telomere shortening, massive apoptosis and G2 arrest
[2]; [8]
  telomere length, apoptosis and cell cycle distribution: telomere shortening, massive apoptosis and G2 arrest
[2]; [9]
  telomere length, apoptosis and cell cycle distribution: telomere shortening, massive apoptosis and G2 arrest
[3]
  telomere length, apoptosis and cell cycle distribution: telomere shortening, massive apoptosis and G2 arrest

## Nc1nc(O)c2ncn(COC(CO)CO)c2n1 [GCV]
[4]
  telomere length, cell cycle and apoptosis: telomere shortening, G2 arrest and massive apoptosis
[5]
  telomere length, cell cycle and apoptosis: telomere shortening, G2 arrest and massive apoptosis
[1]; [8]
  telomere length, apoptosis and cell cycle distribution: telomere shortening, massive apoptosis and G2 arrest
[1]; GCV 0.3 μg/ml, 14 days
  telomere length, apoptosis and cell cycle distribution: telomere shortening, massive apoptosis programmed cell death) and G2 arrest
[2]; [8]
  telomere length, apoptosis and cell cycle distribution: telomere shortening, massive apoptosis and G2 arrest
[2]; [9]
  telomere length, apoptosis and cell cycle distribution: telomere shortening, massive apoptosis and G2 arrest
[3]
  telomere length, apoptosis and cell cycle distribution: telomere shortening, massive apoptosis and G2 arrest

## Nc1nc2c(ncn2CCC(CO)CO)c(=O)[nH]1 [PCV]
[1]; [8]
  telomere length, apoptosis and cell cycle distribution: telomere shortening, massive apoptosis and G2 arrest
[2]; [8]
  telomere length, apoptosis and cell cycle distribution: telomere shortening, massive apoptosis and G2 arrest

## Cc1cn(COCCO)c(=O)[nH]c1=O [SN1, 1-[(2-Hydroxyethoxy)methyl]-5-methyluracil]
[2]; SN 1 or SN 2 1.5 μM, 14 days
  telomere length, apoptosis and cell cycle distribution: telomere shortening, massive apoptosis and G2 arrest
[6]
  IC50 at 2 days: 750 µg/mL (≈ 3.75 mM)

## Nc1ncnc2c1ncn2COCCO [SN2, 9-[(2-Hydroxyethoxy)methyl]-adenine]
[2]; SN 1 or SN 2 1.5 μM, 14 days
  telomere length, apoptosis and cell cycle distribution: telomere shortening, massive apoptosis and G2 arrest
[6]
  IC50 at 2 days: 750 µg/mL (≈ 3.58 mM)

## Cc1cn(COC(CO)CO)c(=O)[nH]c1=O [SN3, 1-[(1,3-Dihydroxy-2-propoxy)methyl]-5-methyluracil]
other
  melting point: 156 to 157 °C
[6]
  IC50 at 2 days: > 1000 µg/mL

## Nc1ncnc2c1ncn2COC(CO)CO [SN4, 9-[(1,3-Dihydroxy-2-propoxy)methyl]-adenine]
[6]
  IC50 at 2 days: > 1000 µg/mL

## Cc1cn(COCCOC(=O)[C@@H](N)C(C)C)c(=O)[nH]c1=O [VSN1, 2-[(5-Methyluracil-1-yl)methoxy]-ethyl L-valinate hydrochloride monohydrate]
[6]
  IC50 at 2 days: > 1000 µg/mL

## CC(C)[C@H](N)C(=O)OCC(CO)OCn1cnc2c(=O)nc(N)[nH]c21 (stereo partly drawn) [Valcyte®]
[7]
  tumor growth in the other treated mice: slowing of tumor growth
[7]; about 14 days
  tumor development: All mice in control and treated groups had developed tumors
[7]; by about day 30
  mice in which the tumor regressed and was eliminated by monotherapy: one
